For one assay, the target named is Acetylcholinesterase (Electrophorus electricus, UniProt O42275). Kind of assay: Cholinesterase Inhibition Assay.
In assay [1] the target is Carboxylic ester hydrolase (Equus caballus, UniProt Q9N1N9). As to the kind of experiment: Cholinesterase Inhibition Assay.

Several values for one entry are separate records, joined by “and”; a condition that tells them apart may be missing. Identical values can stand only once.

Sequence of Acetylcholinesterase (O42275 whole entry): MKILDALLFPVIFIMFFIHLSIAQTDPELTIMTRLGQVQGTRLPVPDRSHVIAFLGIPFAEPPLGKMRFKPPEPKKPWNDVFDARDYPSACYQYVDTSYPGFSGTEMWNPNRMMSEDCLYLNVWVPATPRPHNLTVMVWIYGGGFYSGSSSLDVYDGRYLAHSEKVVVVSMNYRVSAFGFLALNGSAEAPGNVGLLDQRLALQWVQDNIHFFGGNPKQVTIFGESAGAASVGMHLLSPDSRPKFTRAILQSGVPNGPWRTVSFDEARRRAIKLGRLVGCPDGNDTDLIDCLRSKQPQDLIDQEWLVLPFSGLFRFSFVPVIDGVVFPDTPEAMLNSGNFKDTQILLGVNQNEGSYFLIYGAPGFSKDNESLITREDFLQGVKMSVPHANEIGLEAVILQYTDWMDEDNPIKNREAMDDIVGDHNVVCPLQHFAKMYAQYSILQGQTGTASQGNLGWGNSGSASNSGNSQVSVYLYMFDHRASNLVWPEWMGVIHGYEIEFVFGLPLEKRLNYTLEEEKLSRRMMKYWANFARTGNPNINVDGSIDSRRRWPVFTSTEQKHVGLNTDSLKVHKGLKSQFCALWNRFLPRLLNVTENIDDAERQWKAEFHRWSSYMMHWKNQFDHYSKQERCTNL
Sequence of Carboxylic ester hydrolase (Q9N1N9 whole entry): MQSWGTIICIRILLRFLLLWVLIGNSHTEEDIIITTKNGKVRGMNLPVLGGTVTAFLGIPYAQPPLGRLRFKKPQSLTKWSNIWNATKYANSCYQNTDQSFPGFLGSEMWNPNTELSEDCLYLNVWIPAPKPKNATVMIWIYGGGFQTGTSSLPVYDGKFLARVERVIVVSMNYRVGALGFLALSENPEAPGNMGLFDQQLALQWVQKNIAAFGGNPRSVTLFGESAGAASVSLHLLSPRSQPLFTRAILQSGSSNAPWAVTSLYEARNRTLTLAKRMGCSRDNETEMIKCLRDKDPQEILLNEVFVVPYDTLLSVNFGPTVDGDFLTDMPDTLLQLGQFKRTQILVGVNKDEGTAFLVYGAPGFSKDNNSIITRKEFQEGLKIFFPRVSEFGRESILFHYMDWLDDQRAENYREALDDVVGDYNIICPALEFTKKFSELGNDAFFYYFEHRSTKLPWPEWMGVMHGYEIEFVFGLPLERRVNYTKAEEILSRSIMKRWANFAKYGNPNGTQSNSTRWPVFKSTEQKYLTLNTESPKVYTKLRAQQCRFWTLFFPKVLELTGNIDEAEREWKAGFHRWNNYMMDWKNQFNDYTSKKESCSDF

As usually defined, the IC50 is the concentration that inhibits the measured activity by half. The low end stands for greater potency in that assay, the high end for weaker potency in that assay. As for `CC(=O)NC(Cc1ccccc1F)C(=O)Nc1ccc(C)cc1` (centres undefined) [2-Acetamido-3-(2-fluorophenyl)-N-(4-methylphenyl)propanamide (1b)], the 50% inhibitory concentration (IC50) was 69 µM on Acetylcholinesterase and 113 µM in assay [1].

On to `CC(=O)NC(Cc1ccccc1F)C(=O)Nc1ccc([N+](=O)[O-])cc1` (centres undefined) [2-Acetamido-3-(2-fluorophenyl)-N-(4-nitrophenyl)propanamide (1c)], for which the IC50 was 64.4 µM at Acetylcholinesterase and 154 µM in assay [1].

As to `CC(=O)NC(Cc1ccccc1F)C(=O)Nc1ccc(C(F)(F)F)cc1` (centres undefined) [2-Acetamido-3-(2-fluorophenyl)-N-[4-(trifluoromethyl)phenyl]propanamide (1d)], the results for the IC50 (against Acetylcholinesterase; in assay [1]) were 73.4 µM and 218 µM, respectively.

In the case of `CC(=O)NC(Cc1ccccc1F)C(=O)Nc1ccccc1` (centres undefined) [2-Acetamido-3-(2-fluorophenyl)-N-phenylpropanamide (1e)], the IC50 against Acetylcholinesterase amounted to 86.3 µM; in assay [1] it was 121 µM.

With `CC(=O)NC(Cc1cccc(F)c1)C(=O)Nc1ccc(C)cc1` (centres undefined) [2-Acetamido-3-(3-fluorophenyl)-N-(4-methylphenyl)propanamide (2b)], the IC50 amounted to 68.7 µM against Acetylcholinesterase and 143 µM in assay [1].

Take `CC(=O)NC(Cc1cccc(F)c1)C(=O)Nc1ccc([N+](=O)[O-])cc1` (centres undefined) [2-Acetamido-3-(3-fluorophenyl)-N-(4-nitrophenyl)propanamide (2c)]: the IC50 at Acetylcholinesterase amounted to 70.6 µM; in assay [1], 120 µM.

`CC(=O)NC(Cc1cccc(F)c1)C(=O)Nc1ccc(C(F)(F)F)cc1` (centres undefined) [2-Acetamido-3-(3-fluorophenyl)-N-[4-(trifluoromethyl)phenyl]propanamide (2d)]: the values for the IC50 (at Acetylcholinesterase; in assay [1]) were 79.4 µM and 164 µM, respectively.

On to `CC(=O)NC(Cc1cccc(F)c1)C(=O)Nc1ccccc1` (centres undefined) [2-Acetamido-3-(3-fluorophenyl)-N-phenylpropanamide (2e)], for which the IC50 against Acetylcholinesterase was determined as 86.5 µM; in assay [1], 157 µM.

Turning to `CC(=O)NC(Cc1ccc(F)cc1)C(=O)Nc1ccc(C)cc1` (centres undefined) [2-Acetamido-3-(4-fluorophenyl)-N-(4-methylphenyl)propanamide (3b)], the IC50 worked out at 69 µM against Acetylcholinesterase and 154 µM in assay [1].

With `CC(=O)NC(Cc1ccc(F)cc1)C(=O)Nc1ccc([N+](=O)[O-])cc1` (centres undefined) [2-Acetamido-3-(4-fluorophenyl)-N-(4-nitrophenyl)propanamide (3c)], the IC50 was found to be 66 µM on Acetylcholinesterase and 162 µM in assay [1].

On to `CC(=O)NC(Cc1ccc(F)cc1)C(=O)Nc1ccc(C(F)(F)F)cc1` (centres undefined) [2-Acetamido-3-(4-fluorophenyl)-N-[4-(trifluoromethyl)phenyl]propanamide (3d)], for which the figures for the IC50 (on Acetylcholinesterase; in assay [1]) were 84.1 µM and 289 µM, respectively.

In the case of `CC(=O)NC(Cc1ccc(F)cc1)C(=O)Nc1ccccc1` (centres undefined) [2-Acetamido-3-(4-fluorophenyl)-N-phenylpropanamide (3e)], the IC50 came out at 99.8 µM at Acetylcholinesterase and 89.8 µM in assay [1].

As for `CC(=O)NC(Cc1ccccc1F)C(=O)Nc1ccc(Cl)cc1` (centres undefined) [2-Acetamido-N-(4-chlorophenyl)-3-(2-fluorophenyl)propanamide (1a)], the results for the 50% inhibitory concentration (IC50) (on Acetylcholinesterase; in assay [1]) were 76.5 µM and 227 µM, respectively.

Take `CC(=O)NC(Cc1cccc(F)c1)C(=O)Nc1ccc(Cl)cc1` (centres undefined) [2-Acetamido-N-(4-chlorophenyl)-3-(3-fluorophenyl)propanamide (2a)]: the half-inhibitory concentration (IC50) came out at 70.7 µM at Acetylcholinesterase and 170 µM in assay [1].

For `CC(=O)NC(Cc1ccc(F)cc1)C(=O)Nc1ccc(Cl)cc1` (centres undefined) [2-Acetamido-N-(4-chlorophenyl)-3-(4-fluorophenyl)propanamide (3a)], the figures for the IC50 (at Acetylcholinesterase; in assay [1]) were 97 µM and 235 µM, respectively.

In the case of `CC(=O)NC(Cc1ccccc1F)C(=O)O` (centres undefined) [2-acetamido-3-(2-fluorophenyl)propanoic acid (1)], the IC50 stood at 64.2 µM at Acetylcholinesterase and 217 µM in assay [1].

In the case of `CC(=O)NC(Cc1cccc(F)c1)C(=O)O` (centres undefined) [2-acetamido-3-(3-fluorophenyl)propanoic acid (2)], the IC50 against Acetylcholinesterase stood at 63.6 µM; in assay [1], 210 µM.

As for `CC(=O)NC(Cc1ccc(F)cc1)C(=O)O` (centres undefined) [2-acetamido-3-(4-fluorophenyl)propanoic acid (3)], the IC50 at Acetylcholinesterase was 63.7 µM; in assay [1] it was 227 µM.

As for `CC(=O)NC(Cc1ccccc1F)C(=O)Oc1ccc(C(F)(F)F)cc1` (centres undefined) [4-(Trifluoromethyl)phenyl 2-acetamido-3-(2-fluorophenyl)propanoate (1i)], the IC50 against Acetylcholinesterase was 68 µM and 62.9 µM; in assay [1], 37.4 µM and 59.8 µM.

Take `CC(=O)NC(Cc1cccc(F)c1)C(=O)Oc1ccc(C(F)(F)F)cc1` (centres undefined) [4-(Trifluoromethyl)phenyl 2-acetamido-3-(3-fluorophenyl)propanoate (2i)]: the IC50 came to 62.2 µM against Acetylcholinesterase and 34 µM in assay [1].

For `CC(=O)NC(Cc1ccccc1F)C(=O)Oc1ccc(Cl)cc1` (centres undefined) [4-Chlorophenyl 2-acetamido-3-(2-fluorophenyl)propanoate (1f)], the IC50 against Acetylcholinesterase worked out at 104 µM; in assay [1] it was 82.2 µM.

Take `CC(=O)NC(Cc1cccc(F)c1)C(=O)Oc1ccc(Cl)cc1` (centres undefined) [4-Chlorophenyl 2-acetamido-3-(3-fluorophenyl)propanoate (2f)]: the figures for the IC50 (at Acetylcholinesterase; in assay [1]) were 115 µM and 52.7 µM, respectively.

With `CC(=O)NC(Cc1ccc(F)cc1)C(=O)Oc1ccc(Cl)cc1` (centres undefined) [4-Chlorophenyl 2-acetamido-3-(4-fluorophenyl)propanoate (3f)], the IC50 at Acetylcholinesterase was 131 µM; in assay [1] it was 59.1 µM.

In the case of `CC(=O)NC(Cc1ccccc1F)C(=O)Oc1ccc(C)cc1` (centres undefined) [4-Methylphenyl 2-acetamido-3-(2-fluorophenyl)propanoate (1g)], the 50% inhibitory concentration (IC50) on Acetylcholinesterase is 57.9 µM; in assay [1], 85.4 µM.

Take `CC(=O)NC(Cc1cccc(F)c1)C(=O)Oc1ccc(C)cc1` (centres undefined) [4-Methylphenyl 2-acetamido-3-(3-fluorophenyl)propanoate (2g)]: the IC50 on Acetylcholinesterase turned out to be 68.5 µM; in assay [1] it was 90.9 µM.

`CC(=O)NC(Cc1ccc(F)cc1)C(=O)Oc1ccc(C)cc1` (centres undefined) [4-Methylphenyl 2-acetamido-3-(4-fluorophenyl)propanoate (3g)]: the values for the IC50 (at Acetylcholinesterase; in assay [1]) were 73.3 µM and 83.3 µM, respectively.

With `CC(=O)NC(Cc1ccccc1F)C(=O)Oc1ccc([N+](=O)[O-])cc1` (centres undefined) [4-Nitrophenyl 2-acetamido-3-(2-fluorophenyl)propanoate (1h)], the IC50 against Acetylcholinesterase was 76.7 µM; in assay [1] it was 77.5 µM.

`CC(=O)NC(Cc1cccc(F)c1)C(=O)Oc1ccc([N+](=O)[O-])cc1` (centres undefined) [4-Nitrophenyl 2-acetamido-3-(3-fluorophenyl)propanoate (2h)]: the IC50 against Acetylcholinesterase was 74.3 µM; in assay [1], 142 µM.

As to `CC(=O)NC(Cc1ccc(F)cc1)C(=O)Oc1ccc([N+](=O)[O-])cc1` (centres undefined) [4-Nitrophenyl 2-acetamido-3-(4-fluorophenyl)propanoate (3h)], the results for the IC50 (against Acetylcholinesterase; in assay [1]) were 60 µM and 126 µM, respectively.

`CC(=O)NC(Cc1ccccc1F)C(=O)Oc1ccccc1` (centres undefined) [Phenyl 2-acetamido-3-(2-fluorophenyl)propanoate (1j)]: the IC50 at Acetylcholinesterase came out at 79.2 µM; in assay [1], 30 µM.

Take `CC(=O)NC(Cc1cccc(F)c1)C(=O)Oc1ccccc1` (centres undefined) [Phenyl 2-acetamido-3-(3-fluorophenyl)propanoate (2j)]: the figures for the IC50 (at Acetylcholinesterase; in assay [1]) were 87.8 µM and 53.7 µM, respectively.

Turning to `CC(=O)NC(Cc1ccc(F)cc1)C(=O)Oc1ccccc1` (centres undefined) [Phenyl 2-acetamido-3-(4-fluorophenyl)propanoate (3j)], the figures for the IC50 (on Acetylcholinesterase; in assay [1]) were 98.3 µM and 8.25 µM, respectively.

The record behind these values is BindingDB's records for doi:10.1016/j.bioorg.2017.02.010 (Charles University, 2017).
